Source: publication PMC5704298 (ACS Central Science, 2017)

How the values were obtained:
[1] = tested on: ALK phosphorylation in NCI-H2228 and Karpas-299 cell lines; test: Immunoblot of ALK phosphorylation and downstream signaling; format: cell-based; settings: 2 h, dose-dependent
[2] = tested on: patients without treatment with other ALK inhibitors; settings: phase I study, 24 patients, cited from earlier work

Compound	autophosphorylation of ALK; phosphorylation of AKT and STAT3 (immunoblot) [1]	ORR, ALK+ patients ([2]; ALK+) [%]	ORR, NRTK1–3+ patients ([2]; NRTK1–3+) [%]	ORR, ROS1+ patients ([2]; ROS1+) [%]
Cc1cc(Nc2ncc(Cl)c(Nc3ccccc3S(=O)(=O)C(C)C)n2)c(OC(C)C)cc1C1CCNCC1 [Ceritinib]	can inhibit autophosphorylation of ALK			
CN1CCN(c2ccc(C(=O)Nc3n[nH]c4ccc(Cc5cc(F)cc(F)c5)cc34)c(NC3CCOCC3)c2)CC1 [entrectinib]		57	100	85
